From patent US9963442B2, “Pyridones as herbicides” (E I DU PONT DE NEMOURS AND COMPANY, priority 2014, dated 2018)

Tests used:
Format in all cases: in vivo
[1] = test system: Italian ryegrass (Lolium multiflorum); experiment: Test A preemergence, directed soil spray; details: approx. 10 days
Excerpt: (§1) Seeds of plant species selected from barnyardgrass (Echinochloa crus-galli), kochia (Kochia scoparia), ragweed (common ragweed, Ambrosia elatior), Italian ryegrass (Lolium multiflorum), giant foxtail (Setaria faberii), and pigweed (Amaranthus retroflexus) were planted into a blend of loam soil and sand and treated preemergence with a directed soil spray using test chemicals formulated in a non-phytotoxic solvent mixture which included a surfactant. At the same time, plants selected from these weed species and also wheat (Triticum aestivum), corn (Zea mays), blackgrass (Alopecurus myosuroides), and galium (catchweed bedstraw, Galium aparine) were planted in pots containing the same blend of loam soil and sand and treated with postemergence applications of test chemicals formulated in the same manner. Plants ranged in height from 2 to 10 cm and were in the one- to two-leaf stage for the postemergence treatment. Treated plants and untreated controls were maintained in a greenhouse for approximately 10 days, after which time all treated plants were compared to untreated controls and visually evaluated for injury. Plant response ratings, summarized in Table A, are based on a 0 to 100 scale where 0 is no effect and 100 is complete control. A dash (-) response means no test result.

[2] = test system: barnyardgrass (Echinochloa crus-galli); experiment: Test A preemergence, directed soil spray; details: approx. 10 days
Excerpt: as §1

[3] = test system: ragweed (common ragweed, Ambrosia elatior); experiment: Test A preemergence, directed soil spray; details: approx. 10 days
Excerpt: as §1

[4] = test system: pigweed (Amaranthus retroflexus); experiment: Test A preemergence, directed soil spray; details: approx. 10 days
Excerpt: as §1

kochia (Kochia scoparia) [5] = experiment: Test A preemergence, directed soil spray; details: approx. 10 days
Excerpt: as §1

[6] = test system: giant foxtail (Setaria faberii); experiment: Test A preemergence, directed soil spray; details: approx. 10 days
Excerpt: as §1

[7] = test system: blackgrass (Alopecurus myosuroides); experiment: Test A postemergence application; details: approx. 10 days
Excerpt: as §1

[8] = test system: wheat (Triticum aestivum); experiment: Test A postemergence application; details: approx. 10 days
Excerpt: as §1

[9] = test system: Italian ryegrass (Lolium multiflorum); experiment: Test A postemergence application; details: approx. 10 days
Excerpt: as §1

[10] = test system: barnyardgrass (Echinochloa crus-galli); experiment: Test A postemergence application; details: approx. 10 days
Excerpt: as §1

[11] = test system: ragweed (common ragweed, Ambrosia elatior); experiment: Test A postemergence application; details: approx. 10 days
Excerpt: as §1

[12] = test system: pigweed (Amaranthus retroflexus); experiment: Test A postemergence application; details: approx. 10 days
Excerpt: as §1

kochia (Kochia scoparia) [13] = experiment: Test A postemergence application; details: approx. 10 days
Excerpt: as §1

[14] = test system: galium (catchweed bedstraw, Galium aparine); experiment: Test A postemergence application; details: approx. 10 days
Excerpt: as §1

corn (Zea mays) = experiment: Test A postemergence application; details: approx. 10 days
Excerpt: as §1

[15] = test system: giant foxtail (Setaria faberii); experiment: Test A postemergence application; details: approx. 10 days
Excerpt: as §1

[16] = test system: sedge, umbrella (small-flower umbrella sedge, Cyperus difformis); experiment: Test B flooded paddy test; design: key: 0 = no effect, 100 = complete control; details: Flood, 250 g ai/ha applied to paddy water at 2-leaf stage; visually evaluated after 13 to 15 days; scale 0 (no effect) to 100 (complete control)
Experimental: (§2) Plant species in the flooded paddy test selected from rice (Oryza sativa), sedge, umbrella (small-flower umbrella sedge, Cyperus difformis), ducksalad (Heteranthera limosa), and barnyardgrass (Echinochloa crus-galli) were grown to the 2-leaf stage for testing. At time of treatment, test pots were flooded to 3 cm above the soil surface, treated by application of test compounds directly to the paddy water, and then maintained at that water depth for the duration of the test. Treated plants and controls were maintained in a greenhouse for 13 to 15 days, after which time all species were compared to controls and visually evaluated. Plant response ratings, summarized in Table B, are based on a scale of 0 to 100 where 0 is no effect and 100 is complete control. A dash (-) response means no test result.

[17] = test system: barnyardgrass (Echinochloa crus-galli); experiment: Test B flooded paddy test; design: key: 0 = no effect, 100 = complete control; details: Flood, 250 g ai/ha applied to paddy water at 2-leaf stage; visually evaluated after 13 to 15 days; scale 0 (no effect) to 100 (complete control)
Experimental: as §2

[18] = test system: ducksalad (Heteranthera limosa); experiment: Test B flooded paddy test; design: key: 0 = no effect, 100 = complete control; details: Flood, 250 g ai/ha applied to paddy water at 2-leaf stage; visually evaluated after 13 to 15 days; scale 0 (no effect) to 100 (complete control)
Experimental: as §2

rice (Oryza sativa) = experiment: Test B flooded paddy test; design: key: 0 = no effect, 100 = complete control; details: Flood, 250 g ai/ha applied to paddy water at 2-leaf stage; visually evaluated after 13 to 15 days; scale 0 (no effect) to 100 (complete control)
Experimental: as §2

SMILES: O=c1cccc(Oc2ncc(Cl)cn2)n1-c1cccc(OC(F)(F)F)c1 [Compound 3, 6-[(5-chloro-2-pyrimidinyl)oxy]-1-[3-(trifluoromethoxy)phenyl]-2(1H)-pyridinone]
- Plant response rating (0 to 100 scale, 0 no effect, 100 complete control), Ryegrass, Italian ([1]; 1000 g ai/ha): 50
- Plant response rating (0 to 100 scale, 0 no effect, 100 complete control), Barnyardgrass ([2]; 1000 g ai/ha): 80
- Plant response rating (0 to 100 scale, 0 no effect, 100 complete control), Ragweed ([3]; 1000 g ai/ha): 20
- Plant response rating (0 to 100 scale, 0 no effect, 100 complete control), Pigweed ([4]; 1000 g ai/ha): 70
- Plant response rating (0 to 100 scale, 0 no effect, 100 complete control), Kochia (kochia (Kochia scoparia) [5]; 1000 g ai/ha): 40
- Plant response rating (0 to 100 scale, 0 no effect, 100 complete control), Foxtail, Giant ([6]; 1000 g ai/ha): 100
- Plant response rating (0 to 100 scale, 0 no effect, 100 complete control), Blackgrass ([7]; 1000 g ai/ha): 40
- Plant response rating (0 to 100 scale, 0 no effect, 100 complete control), Wheat ([8]; 1000 g ai/ha): 30
- Plant response rating (0 to 100 scale, 0 no effect, 100 complete control), Ryegrass, Italian ([9]; 1000 g ai/ha): 30
- Plant response rating (0 to 100 scale, 0 no effect, 100 complete control), Barnyardgrass ([10]; 1000 g ai/ha): 70
- Plant response rating (0 to 100 scale, 0 no effect, 100 complete control), Ragweed ([11]; 1000 g ai/ha): 30
- Plant response rating (0 to 100 scale, 0 no effect, 100 complete control), Pigweed ([12]; 1000 g ai/ha): 90
- Plant response rating (0 to 100 scale, 0 no effect, 100 complete control), Kochia (kochia (Kochia scoparia) [13]; 1000 g ai/ha): 90
- Plant response rating (0 to 100 scale, 0 no effect, 100 complete control), Galium ([14]; 1000 g ai/ha): 100
- Plant response rating (0 to 100 scale, 0 no effect, 100 complete control), Corn (corn (Zea mays); 1000 g ai/ha): 20
- Plant response rating (0 to 100 scale, 0 no effect, 100 complete control), Foxtail, Giant ([15]; 1000 g ai/ha): 100
- Plant response rating, Sedge, Umbrella [16]: 0
- Plant response rating, Barnyardgrass [17]: 0
- Plant response rating, Ducksalad [18]: 0
- Plant response rating, Rice (rice (Oryza sativa)): 0

SMILES: O=c1cccc(Oc2ncc(Cl)cn2)n1-c1ncc(F)cn1 [Compound 4]
- Plant response rating (0 to 100 scale, 0 no effect, 100 complete control), Ryegrass, Italian ([1]; 31 g ai/ha): 0
- Plant response rating (0 to 100 scale, 0 no effect, 100 complete control), Ryegrass, Italian ([1]; 125 g ai/ha): 0
- Plant response rating (0 to 100 scale, 0 no effect, 100 complete control), Barnyardgrass ([2]; 31 g ai/ha): 0
- Plant response rating (0 to 100 scale, 0 no effect, 100 complete control), Barnyardgrass ([2]; 125 g ai/ha): 0
- Plant response rating (0 to 100 scale, 0 no effect, 100 complete control), Ragweed ([3]; 31 g ai/ha): 0
- Plant response rating (0 to 100 scale, 0 no effect, 100 complete control), Ragweed ([3]; 125 g ai/ha): 0
- Plant response rating (0 to 100 scale, 0 no effect, 100 complete control), Pigweed ([4]; 31 g ai/ha): 70
- Plant response rating (0 to 100 scale, 0 no effect, 100 complete control), Pigweed ([4]; 125 g ai/ha): 70
- Plant response rating (0 to 100 scale, 0 no effect, 100 complete control), Kochia (kochia (Kochia scoparia) [5]; 31 g ai/ha): 0
- Plant response rating (0 to 100 scale, 0 no effect, 100 complete control), Kochia (kochia (Kochia scoparia) [5]; 125 g ai/ha): 70
- Plant response rating (0 to 100 scale, 0 no effect, 100 complete control), Foxtail, Giant ([6]; 31 g ai/ha): 0
- Plant response rating (0 to 100 scale, 0 no effect, 100 complete control), Foxtail, Giant ([6]; 125 g ai/ha): 20
- Plant response rating (0 to 100 scale, 0 no effect, 100 complete control), Blackgrass ([7]; 31 g ai/ha): 20
- Plant response rating (0 to 100 scale, 0 no effect, 100 complete control), Blackgrass ([7]; 125 g ai/ha): 20
- Plant response rating (0 to 100 scale, 0 no effect, 100 complete control), Wheat ([8]; 31 g ai/ha): 0
- Plant response rating (0 to 100 scale, 0 no effect, 100 complete control), Wheat ([8]; 125 g ai/ha): 0
- Plant response rating (0 to 100 scale, 0 no effect, 100 complete control), Ryegrass, Italian ([9]; 31 g ai/ha): 0
- Plant response rating (0 to 100 scale, 0 no effect, 100 complete control), Ryegrass, Italian ([9]; 125 g ai/ha): 0
- Plant response rating (0 to 100 scale, 0 no effect, 100 complete control), Barnyardgrass ([10]; 31 g ai/ha): 0
- Plant response rating (0 to 100 scale, 0 no effect, 100 complete control), Barnyardgrass ([10]; 125 g ai/ha): 0
- Plant response rating (0 to 100 scale, 0 no effect, 100 complete control), Ragweed ([11]; 31 g ai/ha): 10
- Plant response rating (0 to 100 scale, 0 no effect, 100 complete control), Ragweed ([11]; 125 g ai/ha): 20
- Plant response rating (0 to 100 scale, 0 no effect, 100 complete control), Pigweed ([12]; 31 g ai/ha): 50
- Plant response rating (0 to 100 scale, 0 no effect, 100 complete control), Pigweed ([12]; 125 g ai/ha): 70
- Plant response rating (0 to 100 scale, 0 no effect, 100 complete control), Kochia (kochia (Kochia scoparia) [13]; 31 g ai/ha): 40
- Plant response rating (0 to 100 scale, 0 no effect, 100 complete control), Kochia (kochia (Kochia scoparia) [13]; 125 g ai/ha): 80
- Plant response rating (0 to 100 scale, 0 no effect, 100 complete control), Galium ([14]; 31 g ai/ha): 30
- Plant response rating (0 to 100 scale, 0 no effect, 100 complete control), Galium ([14]; 125 g ai/ha): 50
- Plant response rating (0 to 100 scale, 0 no effect, 100 complete control), Corn (corn (Zea mays); 31 g ai/ha): 0
- Plant response rating (0 to 100 scale, 0 no effect, 100 complete control), Corn (corn (Zea mays); 125 g ai/ha): 10
- Plant response rating (0 to 100 scale, 0 no effect, 100 complete control), Foxtail, Giant ([15]; 31 g ai/ha): 0
- Plant response rating (0 to 100 scale, 0 no effect, 100 complete control), Foxtail, Giant ([15]; 125 g ai/ha): 0
- Plant response rating, Sedge, Umbrella [16]: 0
- Plant response rating, Barnyardgrass [17]: 0
- Plant response rating, Ducksalad [18]: 0
- Plant response rating, Rice (rice (Oryza sativa)): 0
